This test in a line: Binding affinity to avidin by surface plasmon resonance assay. In general terms: SPR reads the build-up and loss of mass on a sensor chip optically.

As usually defined, the Kd is the equilibrium constant for the complex coming apart. Read a high Kd as lower affinity. Turning to `Cc1cn([C@@H]2O[C@H](COP(=O)(O)O[C@H]3[C@@H](O)[C@H](n4ccc(N)nc4=O)O[C@@H]3COP(=O)(O)O[C@H]3[C@@H](O)[C@H](n4cnc5c(=O)[nH]c(N)nc54)O[C@@H]3COP(=O)(O)O[C@H]3[C@@H](O)[C@H](n4cnc5c(=O)[nH]c(N)nc54)O[C@@H]3CO)[C@@H](OP(=O)(O)OC[C@H]3O[C@@H](n4cnc5c(N)ncnc54)[C@H](O)[C@@H]3OP(=O)(O)OC[C@H]3O[C@@H](n4cnc5c(N)ncnc54)[C@H](O)[C@@H]3OP(=O)(O)OC[C@H]3O[C@@H](n4cc(C)c(=O)[nH]c4=O)[C@H](O)[C@@H]3OP(=O)(O)OC[C@H]3O[C@@H](n4cnc5c(N)ncnc54)[C@H](O)[C@@H]3OP(=O)(O)OC[C@H]3O[C@@H](n4cnc5c(=O)[nH]c(N)nc54)[C@H](O)[C@@H]3OP(=O)(O)OC[C@H]3O[C@@H](n4cnc5c(N)ncnc54)[C@H](O)[C@@H]3OP(=O)(O)OC[C@H]3O[C@@H](n4ccc(N)nc4=O)[C@H](O)[C@@H]3OP(=O)(O)OC[C@H]3O[C@@H](n4ccc(N)nc4=O)[C@H](O)[C@@H]3OP(=O)(O)OC[C@H]3O[C@@H](n4cc(C)c(=O)[nH]c4=O)[C@H](O)[C@@H]3OP(=O)(O)OC[C@H]3O[C@@H](n4cnc5c(=O)[nH]c(N)nc54)[C@H](O)[C@@H]3OP(=O)(O)OC[C@H]3O[C@@H](n4cnc5c(=O)[nH]c(N)nc54)[C@H](O)[C@@H]3OP(=O)(O)OC[C@H]3O[C@@H](n4cnc5c(=O)[nH]c(N)nc54)[C@H](O)[C@@H]3OP(=O)(O)OC[C@H]3O[C@@H](n4cnc5c(=O)[nH]c(N)nc54)[C@H](O)[C@@H]3OP(=O)(O)OC[C@H]3O[C@@H](n4cc(C)c(=O)[nH]c4=O)[C@H](O)[C@@H]3OP(=O)(O)OC[C@H]3O[C@@H](n4cc(C)c(=O)[nH]c4=O)[C@H](O)[C@@H]3OP(=O)(O)OC[C@H]3O[C@@H](n4cnc5c(=O)[nH]c(N)nc54)[C@H](O)[C@@H]3OP(=O)(O)OC[C@H]3O[C@@H](n4cnc5c(=O)[nH]c(N)nc54)[C@H](O)[C@@H]3OP(=O)(O)O)[C@H]2O)c(=O)[nH]c1=O`, binding was characterised by a dissociation constant (Kd) of 9.78 nM.

`COP(=O)(O)O[C@H]1[C@@H](O)[C@H](n2cnc3c(=O)[nH]c(N)nc32)O[C@@H]1COP(=O)(O)O[C@H]1[C@@H](O)[C@H](n2cnc3c(=O)[nH]c(N)nc32)O[C@@H]1COP(=O)(O)O[C@H]1[C@@H](O)[C@H](n2cc(C)c(=O)[nH]c2=O)O[C@@H]1COP(=O)(O)O[C@H]1[C@H]2NC[C@]1(COP(=O)(O)O[C@H]1[C@@H](O)[C@H](n3cnc4c(=O)[nH]c(N)nc43)O[C@@H]1COP(=O)(O)O[C@H]1[C@@H](O)[C@H](n3cnc4c(=O)[nH]c(N)nc43)O[C@@H]1COP(=O)(O)O[C@H]1[C@@H](O)[C@H](n3cnc4c(=O)[nH]c(N)nc43)O[C@@H]1COP(=O)(O)O[C@H]1[C@@H](O)[C@H](n3cnc4c(=O)[nH]c(N)nc43)O[C@@H]1COP(=O)(O)O[C@H]1[C@@H](O)[C@H](n3cc(C)c(=O)[nH]c3=O)O[C@@H]1COP(=O)(O)O[C@H]1[C@@H](O)[C@H](n3ccc(N)nc3=O)O[C@@H]1COP(=O)(O)O[C@H]1[C@@H](O)[C@H](n3ccc(N)nc3=O)O[C@@H]1COP(=O)(O)O[C@H]1[C@@H](O)[C@H](n3cnc4c(N)ncnc43)O[C@@H]1COP(=O)(O)O[C@H]1[C@@H](O)[C@H](n3cnc4c(=O)[nH]c(N)nc43)O[C@@H]1COP(=O)(O)O[C@H]1[C@@H](O)[C@H](n3cnc4c(N)ncnc43)O[C@@H]1COP(=O)(O)O[C@H]1[C@@H](O)[C@H](n3cc(C)c(=O)[nH]c3=O)O[C@@H]1COP(=O)(O)O[C@H]1[C@@H](O)[C@H](n3cnc4c(N)ncnc43)O[C@@H]1COP(=O)(O)O[C@H]1[C@@H](O)[C@H](n3cnc4c(N)ncnc43)O[C@@H]1COP(=O)(O)O[C@H]1[C@@H](O)[C@H](n3cc(C)c(=O)[nH]c3=O)O[C@@H]1COP(=O)(O)O[C@H]1[C@@H](O)[C@H](n3ccc(N)nc3=O)O[C@@H]1COP(=O)(O)O[C@H]1[C@H]3OC[C@]1(COP(=O)(O)O[C@H]1[C@@H](O)[C@H](n4cnc5c(=O)[nH]c(N)nc54)O[C@@H]1CO)O[C@H]3n1cnc3c(=O)[nH]c(N)nc31)O[C@H]2n1cc(C)c(=O)[nH]c1=O`: binding was put at a Kd of 4.2 nM.

Compound `Cc1cn([C@@H]2O[C@H](COP(=O)(O)O[C@H]3[C@@H](O)[C@H](n4ccc(N)nc4=O)O[C@@H]3COP(=O)(O)O[C@H]3[C@@H](O)[C@H](n4cnc5c(=O)[nH]c(N)nc54)O[C@@H]3COP(=O)(O)O[C@H]3[C@@H](O)[C@H](n4cnc5c(=O)[nH]c(N)nc54)O[C@@H]3CO)[C@@H](OP(=O)(O)OC[C@H]3O[C@@H](n4cnc5c(N)ncnc54)[C@H](O)[C@@H]3OP(=O)(O)OC[C@H]3O[C@@H](n4cnc5c(N)ncnc54)[C@H](O)[C@@H]3OP(=O)(O)OC[C@H]3O[C@@H](n4cc(C)c(=O)[nH]c4=O)[C@H](O)[C@@H]3OP(=O)(O)OC[C@H]3O[C@@H](n4cnc5c(N)ncnc54)[C@H](O)[C@@H]3OP(=O)(O)OC[C@H]3O[C@@H](n4cnc5c(=O)[nH]c(N)nc54)[C@H](O)[C@@H]3OP(=O)(O)OC[C@H]3O[C@@H](n4cnc5c(N)ncnc54)[C@H](O)[C@@H]3OP(=O)(O)OC[C@H]3O[C@@H](n4ccc(N)nc4=O)[C@H](O)[C@@H]3OP(=O)(O)OC[C@H]3O[C@@H](n4ccc(N)nc4=O)[C@H](O)[C@@H]3OP(=O)(O)OC[C@H]3O[C@@H](n4cc(C)c(=O)[nH]c4=O)[C@H](O)[C@@H]3OP(=O)(O)OC[C@H]3O[C@@H](n4cnc5c(=O)[nH]c(N)nc54)[C@H](O)[C@@H]3OP(=O)(O)OC[C@H]3O[C@@H](n4cnc5c(=O)[nH]c(N)nc54)[C@H](O)[C@@H]3OP(=O)(O)O)[C@H]2O)c(=O)[nH]c1=O` returned a Kd of 13.1 nM.

`Cc1cn([C@@H]2O[C@H](COP(=O)(O)O[C@H]3[C@@H](O)[C@H](n4ccc(N)nc4=O)O[C@@H]3COP(=O)(O)O[C@H]3[C@H]4OC[C@]3(COP(=O)(O)O[C@H]3[C@@H](O)[C@H](n5cnc6c(=O)[nH]c(N)nc65)O[C@@H]3CO)O[C@H]4n3cnc4c(=O)[nH]c(N)nc43)[C@@H](OP(=O)(O)OC[C@H]3O[C@@H](n4cnc5c(N)ncnc54)[C@H](O)[C@@H]3OP(=O)(O)OC[C@H]3O[C@@H](n4cnc5c(N)ncnc54)[C@H](O)[C@@H]3OP(=O)(O)OC[C@H]3O[C@@H](n4cc(C)c(=O)[nH]c4=O)[C@H](O)[C@@H]3OP(=O)(O)OC[C@H]3O[C@@H](n4cnc5c(N)ncnc54)[C@H](O)[C@@H]3OP(=O)(O)OC[C@H]3O[C@@H](n4cnc5c(=O)[nH]c(N)nc54)[C@H](O)[C@@H]3OP(=O)(O)OC[C@H]3O[C@@H](n4cnc5c(N)ncnc54)[C@H](O)[C@@H]3OP(=O)(O)OC[C@H]3O[C@@H](n4ccc(N)nc4=O)[C@H](O)[C@@H]3OP(=O)(O)OC[C@H]3O[C@@H](n4ccc(N)nc4=O)[C@H](O)[C@@H]3OP(=O)(O)OC[C@H]3O[C@@H](n4cc(C)c(=O)[nH]c4=O)[C@H](O)[C@@H]3OP(=O)(O)OC[C@H]3O[C@@H](n4cnc5c(=O)[nH]c(N)nc54)[C@H](O)[C@@H]3OP(=O)(O)OC[C@H]3O[C@@H](n4cnc5c(=O)[nH]c(N)nc54)[C@H](O)[C@@H]3OP(=O)(O)OC[C@H]3O[C@@H](n4cnc5c(=O)[nH]c(N)nc54)[C@H](O)[C@@H]3OP(=O)(O)OC[C@H]3O[C@@H](n4cnc5c(=O)[nH]c(N)nc54)[C@H](O)[C@@H]3OP(=O)(O)OC[C@H]3O[C@@H](n4cc(C)c(=O)[nH]c4=O)[C@H](O)[C@@H]3OP(=O)(O)OC[C@@]34CN[C@@H]([C@H](n5cc(C)c(=O)[nH]c5=O)O3)[C@@H]4OP(=O)(O)OC[C@H]3O[C@@H](n4cnc5c(=O)[nH]c(N)nc54)[C@H](O)[C@@H]3OP(=O)(O)OC[C@H]3O[C@@H](n4cnc5c(=O)[nH]c(N)nc54)[C@H](O)[C@@H]3OP(=O)(O)O)[C@H]2O)c(=O)[nH]c1=O` had a Kd of 4.97 nM.

For the origin of these results see ChEMBL document CHEMBL1154795, “Aptamers as a model for functional evaluation of LNA and 2'-amino LNA” (Bioorg Med Chem Lett, 2009).
